Measurements reported in patent US20250388602A1 (Genase Therapeutics B.V., priority 2022, published 2025).

Legend:
in vitro [1] = details: for HLM % remaining: % remaining at 60 min, 1 μM; for half-life at 1 μM: both, human, pooled liver microsomes
Procedure: Human Liver Microsomal metabolic stability: The microsomal metabolic stability assay utilized pooled human liver microsomes (mixed gender, BD Gentest), with supplemented cofactors NADPH and UDPGA (Solarbio S&T Co., LTD). Two separate experiments were performed as follows: • a) With cofactors (NADPH & UDPGA): 25 μL of 10 mM NADPH and 25 μL of 20 mM UDPGA were added to 197.5 μL of reaction solution (phosphate buffer (final concentration in assay 100 mM), MgCl2 (final concentration in assay (5 mM)), alamethacin (final concentration in assay 0.025 mg/mL) and microsomes (final concentration in assay 0.5 mg/mL). • b) Without cofactors (NADPH & UDPGA): 50 μL of H2O was added to 197.5 μL of reaction solution.
The mixture was pre-warmed at 37° C. for 10 minutes. The reaction was started with the addition of 2.5 μL of 100 μM control compound or test compound solutions. Diclofenac was used as positive control in this study. The final concentration of control compound and test compounds was 1 μM. Aliquots of 25 μL were taken from the reaction solution at 0.5, 5, 15, 30 and 60 minutes. The reaction was stopped by the addition of 5 volumes of cold acetonitrile containing internal standards. Samples were centrifuged at 3,220 g for 40 minutes. An aliquot of 100 μL of the supernatant was mixed with 100 μL of ultra-pure H2O and then used for LC-MS/MS analysis. Peak areas were determined from extracted ion chromatograms. Percent parent remaining was calculated from the area ratio of test compound. The slope value was determined by linear regression of the natural logarithm of percent parent remaining versus incubation time curve.
(§1) Peak areas were determined from extracted ion chromatograms to determine the in vitro half-life (t½) of parent compound by regression analysis of the percent parent disappearance vs. time curve. The in vitro half-life (in vitro t½) was determined from the slope value (in vitro t½=−0.693/k). All calculations were carried out using Microsoft Excel.

MOLM-13 cells = experiment: MOLM-13 cell viability (Assay B), Cell Titer-Glo; format: cell-based; details: for IC50: Homo sapiens, MOLM-13, 72 hours, bins ≥10 nM-<100 nM and <10 nM, read-out: IC50 MOLM13 inhibition activity
Procedure: MOLM-13 cells (an acute myeloid leukemia cell line) were plated in RPMI supplied with 10% FBS and 1% Pen/Strep in 384-well plates at 1,000 cells per well on day 0. On day 1, treatment of the cells with compound (concentration range 10E-5 and 6E-12 M) was initiated in the presence or absence of 100 μM uridine. After 72 hours incubation of the cells with or without test compound, the number of viable cells per well was assessed by Cell Titer-Glo Luminescent Cell Viability Assay (Promega, Madison, WI, USA). […] Each condition was tested in duplicate and the potency of test compounds was determined from two independent experiments.

in vitro [2] = details: for hHEPs % remaining: 1 μM
Procedure: Human Hepatocyte metabolic stability: Human hepatocytes (X008000, BioIVT) were freshly thawed prior to the incubations with test compound. Hepatocytes were transferred to 50 mL conical tubes and centrifuged 10 min at 100 g. Thawing medium was removed and replaced by preheated (37° C.) incubation medium (William's E Medium supplemented with GlutaMAX), to yield a hepatocyte density ˜1.5×10^6 cells/mL. Cell viability was determined using AO/PI staining and hepatocytes were diluted using incubation medium to a working density of 0.5×10^6 viable cells/mL. 198 μL of hepatocytes were added into each well of a 96-well plate and placed in the incubator to allow the hepatocytes to warm for 10 minutes. 2 μL test compound or positive control was placed into respective wells of the 96-well plate (final concentration test compound 1 μM) to start the reaction. The plate was returned to the incubator and 25 μL aliquots of the well contents were removed at time points of 0, 15, 30, 60, 90 and 120 minutes. The aliquots were mixed with 6 volumes (150 μL) of acetonitrile containing internal standards (100 nM alprazolam, 200 nM caffeine, and 100 nM tolbutamide) to terminate the reaction. The plate was centrifuged for 20 minutes at 3,200 g. Aliquots of 150 μL of the supernatants were used for LC/MS/MS analysis. All incubations were performed in duplicate.
as §1

recombinant human DHODH = recombinant human DHODH (Homo sapiens (Human), UniProt Q02127); experiment: DHODH enzyme assay (Assay A), DCIP absorbance; format: biochemical; details: bins ≥10 nM-<100 nM and <10 nM; read-out: IC50 DHODH inhibition activity
Procedure: Inhibition of human dihydroorotate dehydrogenase (DHODH) by example compounds as described herein was determined using one of two assays as described below.
DHODH enzyme assays were performed with 6 nM recombinant human DHODH (purified essentially as described by Walse et al., Biochemistry, 47, 8929-8936 (2008)). The reaction mixture consisted of 1 mM DL-dihydroorotic acid (#D7003, Sigma-Aldrich), 100 μM 3,4-dimethoxy-5-methyl-p-benzoquinone (#D9150, Sigma-Aldrich), and 100 μM 2,6-dichlorophenolindophenol sodium salt (DCIP) (#D1878, Sigma-Aldrich) in enzyme buffer (50 mM Tris-HCl pH 8.0, 0.1% Triton X-100, 150 mM KCl). A stock solution of 20 mM DCIP was prepared in enzyme buffer and filtered through Whatman paper just before use. Reactions were performed in a total volume of 100 μL, consisting of 1 μL of compound, 49 μL of enzyme and 50 μL of reaction mixture. Loss in absorbance by chromogen DCIP was measured at 595 nm following a 70 minute incubation at 32° C.

recombinant human DHODH, sequence (Q02127 whole entry): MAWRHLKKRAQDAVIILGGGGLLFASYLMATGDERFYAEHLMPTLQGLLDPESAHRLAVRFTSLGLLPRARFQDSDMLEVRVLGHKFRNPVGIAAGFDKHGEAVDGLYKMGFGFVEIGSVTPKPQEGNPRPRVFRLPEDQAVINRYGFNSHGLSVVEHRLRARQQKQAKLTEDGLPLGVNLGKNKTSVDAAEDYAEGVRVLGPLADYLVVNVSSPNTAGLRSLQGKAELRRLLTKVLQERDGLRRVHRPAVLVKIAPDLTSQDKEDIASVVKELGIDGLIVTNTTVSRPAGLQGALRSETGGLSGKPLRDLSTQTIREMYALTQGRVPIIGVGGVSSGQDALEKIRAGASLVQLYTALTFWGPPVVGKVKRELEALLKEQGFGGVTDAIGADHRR

Row | HLM % remaining (in vitro [1]) [%] | half-life at 1 μM (in vitro [1]) [h] | IC50 (MOLM-13 cells) [nM] | hHEPs % remaining (in vitro [2]; % remaining at 120 min) [%] | half-life at 1 μM (in vitro [2]; human, hepatocytes) [h] | IC50 (recombinant human DHODH) [nM] | hHEPs % remaining (in vitro [2]; human, hepatocytes, 2 h) [%] | Compound | MOLM13 cell growth and/or viability (FIG. 2) (MOLM-13 cells; absence of uridine) | effect on MOLM13 cell growth and/or viability on addition of excess uridine (FIG. 2) (MOLM-13 cells; presence of 100 μM uridine)
1 | 87 | 4.58 | 10 to 100 | 100 | > 10 | 10 to 100 |  | Cc1cccc(F)c1-n1ncc2c1COC[C@H]2NC(=O)c1ncn2c1CCCC2 [Ex-58, (S)—N-(1-(2-fluoro-6-methylphenyl)-1,4,5,7-tetrahydropyrano[3,4-c]pyrazol-4-yl)-5,6,7,8-tetrahydroimidazo[1,5-a]pyridine-1-carboxamide] |  | 
2 | 94 | > 6.08 | 10 to 100 |  | > 10 | 10 to 100 | 100 | O=C(N[C@@H]1COCc2c1cnn2-c1ccccc1C(F)(F)F)c1ncn2c1CCCC2 [Ex-55, (S)—N-(1-(2-(trifluoromethyl)phenyl)-1,4,5,7-tetrahydropyrano[3,4-c]pyrazol-4-yl)-5,6,7,8-tetrahydroimidazo[1,5-a]pyridine-1-carboxamide] |  | 
3 | 93 | > 6.08 | < 10 | 90 | > 10 | < 10 |  | O=C(N[C@@H]1COCc2c1cnn2-c1c(F)cccc1Cl)c1ncn2c1CCCC2 (single isomer, unassigned) [Ex-11] | reduce MOLM13 cell growth and/or viability | largely prevented
4 | 90 | > 6.08 | 10 to 100 | 89 | > 10 | 10 to 100 |  | O=C(N[C@@H]1COCc2c1cnn2-c1c(F)cccc1Cl)c1n[nH]c2c1CCCC2 [Ex-46, (S)—N-(1-(2-chloro-6-fluorophenyl)-1,4,5,7-tetrahydropyrano[3,4-c]pyrazol-4-yl)-4,5,6,7-tetrahydro-1H-indazole-3-carboxamide] |  | 
5 | 92 | > 6.08 | 10 to 100 |  | 9.97 | 10 to 100 | 87 | O=C(N[C@@H]1COCc2c1cnn2-c1ccccc1F)c1ncn2c1CCCC2 (single isomer, unassigned) [Ex-3] |  | 
6 | 88 | > 6.08 | < 10 | 95 | > 10 | < 10 |  | O=C(N[C@@H]1COCc2c1cnn2-c1c(Cl)cccc1Cl)c1ncn2c1CCCC2 (single isomer, unassigned) [Ex-13] |  | 
7 | 96 | 6.08 | 10 to 100 | 82 | 5.97 | 10 to 100 |  | Cc1cnc(C(=O)N[C@@H]2COCc3c2cnn3-c2c(F)cccc2Cl)cc1C [Ex-48, (S)—N-(1-(2-chloro-6-fluorophenyl)-1,4,5,7-tetrahydropyrano[3,4-c]pyrazol-4-yl)-4,5-dimethylpicolinamide] |  | 
8 | 91 | > 6.08 | 10 to 100 | 100 | > 10 | 10 to 100 |  | O=C(N[C@@H]1COCc2c1cnn2-c1c(F)cccc1F)c1ncn2c1CCCC2 [Ex-59, (S)—N-(1-(2,6-difluorophenyl)-1,4,5,7-tetrahydropyrano[3,4-c]pyrazol-4-yl)-5,6,7,8-tetrahydroimidazo[1,5-a]pyridine-1-carboxamide] |  | 
9 | 84 | 4.52 | 10 to 100 |  | > 10 | 10 to 100 | 100 | Cc1ccccc1-n1ncc2c1COC[C@H]2NC(=O)c1ncn2c1CCCC2 [Ex-52, (S)—N-(1-(o-tolyl)-1,4,5,7-tetrahydropyrano[3,4-c]pyrazol-4-yl)-5,6,7,8-tetrahydroimidazo[1,5-a]pyridine-1-carboxamide] |  | 
10 | 92 | > 6.08 | 10 to 100 | 100 | > 10 | 10 to 100 |  | COc1ccccc1-n1ncc2c1COC[C@H]2NC(=O)c1ncn2c1CCCC2 [Ex-54, (S)—N-(1-(2-methoxyphenyl)-1,4,5,7-tetrahydropyrano[3,4-c]pyrazol-4-yl)-5,6,7,8-tetrahydroimidazo[1,5-a]pyridine-1-carboxamide] |  | 
11 | 94 | > 6.08 | 10 to 100 | 100 | > 10 | 10 to 100 |  | COc1cccc(C)c1-n1ncc2c1COC[C@H]2NC(=O)c1ncn2c1CCCC2 [Ex-61, (S)—N-(1-(2-methoxy-6-methylphenyl)-1,4,5,7-tetrahydropyrano[3,4-c]pyrazol-4-yl)-5,6,7,8-tetrahydroimidazo[1,5-a]pyridine-1-carboxamide] |  | 
12 | 92 | > 6.08 |  | 93 | > 10 |  |  | O=C(N[C@@H]1COCc2c1cnn2-c1ccccc1F)c1noc2c1CCCC2 [Ex-43, (S)—N-(1-(2-fluorophenyl)-1,4,5,7-tetrahydropyrano[3,4-c]pyrazol-4-yl)-4,5,6,7-tetrahydrobenzo[d]isoxazole-3-carboxamide] |  | 
13 | 96 | > 6.08 | 10 to 100 | 99 | > 10 | 10 to 100 |  | Cc1ccc(Cl)c(-n2ncc3c2COC[C@H]3NC(=O)c2ncn3c2CCCC3)c1 [Ex-53, (S)—N-(1-(2-chloro-5-methylphenyl)-1,4,5,7-tetrahydropyrano[3,4-c]pyrazol-4-yl)-5,6,7,8-tetrahydroimidazo[1,5-a]pyridine-1-carboxamide] |  | 

Row | Compound | HLM % remaining (in vitro [1]) [%] | half-life at 1 μM (in vitro [1]) [h] | IC50 (MOLM-13 cells) [nM] | hHEPs % remaining (in vitro [2]; % remaining at 120 min) [%] | half-life at 1 μM (in vitro [2]; human, hepatocytes) [h] | IC50 (recombinant human DHODH) [nM] | hHEPs % remaining (in vitro [2]; human, hepatocytes, 2 h) [%] | MOLM13 cell growth and/or viability (FIG. 2) (MOLM-13 cells; absence of uridine) | effect on MOLM13 cell growth and/or viability on addition of excess uridine (FIG. 2) (MOLM-13 cells; presence of 100 μM uridine)
14 | CCc1c(C(=O)N[C@@H]2COCc3c2cnn3-c2ccccc2F)ncn1C [Ex-41, (S)-5-ethyl-N-(1-(2-fluorophenyl)-1,4,5,7-tetrahydropyrano[3,4-c]pyrazol-4-yl)-1-methyl-1H-imidazole-4-carboxamide] | 100 | > 6.08 | 10 to 100 | 100 | > 10 | 10 to 100 |  |  | 
